# Measured values reported in patent US20250197387A1, “BCL-XL DEGRADERS AND USES THEREOF” (Kymera Therapeutics, Inc., priority 2021, published 2025).
# Tests used:
# Format in all cases: cell-based
# MOLT-4 cells = experiment: CTG (CellTiter-Glo) cell viability assay, MOLT-4; details: Homo sapiens, MOLT-4, 72 h, 3 day incubation, read-out: CTG Cell Viability Assay - MOLT-4 3 day: Average external-IC50
# Method in brief: (§1)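 MOLT-4 and Caki-2 cells at 10,000 cells/well exposed 3 days at 37° C., 5% CO2 to 9 doses (1:3, top 10 μM, 0.2% DMSO). Viability by CellTiter-Glo luminescence; IC50 from three-parameter logistic fit.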
# Caki-2 cells = experiment: CTG (CellTiter-Glo) cell viability assay, Caki-2; details: Homo sapiens, 72 h, 3 day incubation, read-out: CTG Chempartner - Caki-2 3 day: Average external-IC50
# Method in brief: as §1
# BCL-XL = target: T1, BCL-XL (Homo sapiens, UniProt Q07817); experiment: Bcl-xL ELISA degradation in MOLT-4 cells, 6 h; details: for DC50: read-out: Bcl-xL ELISA in MOLT-4 degradation 6 h: Mean external-Abs DC50
# T1 construct: endogenous in cells; host or cells: MOLT-4
# Procedure: The letter codes for BCL-XL DC50 include: A (<0.01 μM); B (0.01-0.1 μM); C (>[…]); D (>0.5-1.0 μM); and E (>1.0 μM). The letter codes for Dmax % include A (>75%); B (50 to 75%); C (<50%).
# T1 sequence (Q07817 whole entry): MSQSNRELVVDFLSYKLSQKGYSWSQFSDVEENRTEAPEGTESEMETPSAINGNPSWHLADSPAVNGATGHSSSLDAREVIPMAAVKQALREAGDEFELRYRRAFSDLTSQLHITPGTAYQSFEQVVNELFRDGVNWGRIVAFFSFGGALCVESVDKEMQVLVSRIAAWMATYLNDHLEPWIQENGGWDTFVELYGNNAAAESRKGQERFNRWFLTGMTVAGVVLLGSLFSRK
Compound,IC50 (MOLT-4 cells) [nM],IC50 (Caki-2 cells) [nM],Dmax (BCL-XL) [%],DC50 (BCL-XL) [nM]
C#Cc1ccc(CNC(=O)[C@@H]2C[C@@H](O)CN2C(=O)[C@@H](NC(=O)C2CN(CCS(=O)(=O)NC(=O)c3nc(N(C)c4cc(C)c(Nc5nc6ccccc6s5)nn4)ccc3-c3cnn(CC45CC6CC(CC(C6)C4)C5)c3C)C2)C(C)(C)C)cc1 [I-433],100 to 1000,> 10000,> 75,100 to 500
Cc1ncsc1-c1ccc([C@H](C)NC(=O)[C@@H]2C[C@@H](O)CN2C(=O)[C@@H](NC(=O)C2CCN(c3ccc(S(=O)(=O)NC(=O)c4nc(N5CCc6cccc(C(=O)Nc7nc8ccccc8s7)c6C5)ccc4-c4cnn(CC5CCCCC5)c4C)cc3F)CC2)C(C)(C)C)cc1 [I-328],< 100,1000 to 10000,> 75,10 to 100
Cc1ncsc1-c1ccc([C@H](C)NC(=O)[C@@H]2C[C@@H](O)CN2C(=O)[C@@H](c2cc(OC3CC4(C3)CN(C(=O)c3nc(N5CCc6cccc(C(=O)Nc7nc8ccccc8s7)c6C5)ccc3-c3cnn(CC5CCCCC5)c3C)C4)no2)C(C)C)cc1 [I-294],100 to 1000,1000 to 10000,50 to 75,10 to 100
Cc1ncsc1-c1ccc(CNC(=O)[C@@H]2C[C@@H](O)CN2C(=O)[C@@H](NC(=O)CCc2cc(F)c(S(=O)(=O)NC(=O)c3nc(N4CCc5cccc(C(=O)Nc6nc7ccccc7s6)c5C4)ccc3-c3cnn(CC4CCCCC4)c3C)c(F)c2)C(C)(C)C)cc1 [I-347],100 to 1000,> 10000,> 75,10 to 100
Cc1ncsc1-c1ccc([C@H](C)NC(=O)[C@@H]2C[C@@H](O)CN2C(=O)[C@H](NC(=O)CCCCCS(=O)(=O)NC(=O)c2nc(N3CCc4cccc(C(=O)Nc5nc6ccccc6s5)c4C3)ccc2-c2cnn(CC3CCCCC3)c2C)C(C)(C)CCOP(=O)(O)O)cc1 [I-416],> 3000,> 10000,> 75,100 to 500
Cc1ncsc1-c1ccc([C@H](C)NC(=O)[C@@H]2C[C@@H](O)CN2C(=O)[C@@H](NC(=O)CCCCCS(=O)(=O)NC(=O)c2nc(N3CCc4cccc(C(=O)Nc5nc6ccccc6s5)c4C3)ccc2-c2cnn(CC3CCCCC3)c2C)C(C)(C)CCO)cc1 [I-365],< 100,> 10000,> 75,10 to 100
C#Cc1ccc(CNC(=O)[C@@H]2C[C@@H](O)CN2C(=O)[C@@H](NC(=O)CCCCCS(=O)(=O)NC(=O)c2nc(N(C)c3cc(C)c(Nc4nc5ccccc5s4)nn3)ccc2-c2cnn(CC34CC5CC(CC(C5)C3)C4)c2C)C(C)(C)C)cc1 [I-379],< 100,> 10000,> 75,< 10
Cc1ncsc1-c1ccc([C@H](C)NC(=O)[C@@H]2C[C@@H](O)CN2C(=O)[C@@H](NC(=O)CCCCCS(=O)(=O)NC(=O)c2nc(N3CCc4cccc(C(=O)Nc5nc6ccccc6s5)c4C3)ccc2-c2ccnc(OC(C)C)c2C)C(C)(C)C)cc1 [I-315],< 100,> 10000,> 75,10 to 100
C#Cc1ccc([C@H](C)NC(=O)[C@@H]2C[C@@H](O)CN2C(=O)[C@@H](NC(=O)CCCCCS(=O)(=O)NC(=O)c2nc(N3CCc4cccc(C(=O)Nc5nc6cccnc6s5)c4C3)ccc2-c2cnn(CC3CCCCC3)c2C)C(C)(C)C)c(OCCO)c1 [I-480],< 100,> 10000,> 75,< 10
C#Cc1ccc([C@H](C)NC(=O)[C@@H]2C[C@@H](O)CN2C(=O)[C@@H](NC(=O)CCCCCS(=O)(=O)NC(=O)c2nc(N(C)c3cc(C)c(Nc4nc5ccccc5s4)nn3)ccc2-c2cnn(CC34CC5CC(CC(C5)C3)C4)c2C)C(C)(C)C)c(OCCO)c1 [I-477],< 100,> 10000,> 75,< 10
Cc1cc(N(C)c2ccc(-c3cnn(CC45CC6CC(CC(C6)C4)C5)c3C)c(C(=O)NS(=O)(=O)CCN(C)CCC(=O)N[C@H](C(=O)N3C[C@H](O)C[C@H]3C(=O)N[C@@H](C)c3ccc(-c4scnc4C)cc3)C(C)(C)C)n2)nnc1Nc1nc2ccccc2s1 [I-428],< 100,> 10000,> 75,10 to 100
Cc1ncsc1-c1ccc([C@H](C)NC(=O)[C@@H]2C[C@@H](O)CN2C(=O)[C@@H](NC(=O)C#CC2CCN(S(=O)(=O)NC(=O)c3nc(N4CCc5cccc(C(=O)Nc6nc7ccccc7s6)c5C4)ccc3-c3cnn(CC4CCCCC4)c3C)CC2)C(C)(C)C)cc1 [I-420],< 100,1000 to 10000,> 75,10 to 100
Cc1ncsc1-c1ccc([C@H](C)NC(=O)[C@@H]2C[C@@H](O)CN2C(=O)[C@@H](NC(=O)CCCCCS(=O)(=O)NC(=O)c2nc(N3CCc4cccc(C(=O)Nc5nc6ccccc6s5)c4C3)ccc2-c2cccc(OC(C)C)c2C)C(C)(C)C)cc1 [I-309],1000 to 3000,1000 to 10000,50 to 75,100 to 500
COc1nn(C)c2ccc(CNC(=O)[C@@H]3C[C@@H](O)CN3C(=O)[C@@H](NC(=O)CCCCCS(=O)(=O)NC(=O)c3nc(N4CCc5cccc(C(=O)Nc6nc7cccnc7s6)c5C4)ccc3-c3cnn(CC4CCCCC4)c3C)C(C)(C)C)cc12 [I-483],< 100,> 10000,> 75,10 to 100
C#Cc1ccc([C@H](C)NC(=O)[C@@H]2C[C@@H](O)CN2C(=O)[C@@H](NC(=O)CCCCCS(=O)(=O)NC(=O)c2nc(N3CCc4cccc(C(=O)Nc5nc6cccnc6s5)c4C3)ccc2-c2cnn(CC3CCCCC3)c2C)C(C)(C)C)c(O)c1 [I-479],< 100,> 10000,> 75,< 10
Cc1ncsc1-c1ccc([C@H](C)NC(=O)[C@@H]2C[C@@H](O)CN2C(=O)[C@@H](NC(=O)C2CCN(c3ccc(S(=O)(=O)NC(=O)c4nc(N5CCc6cccc(C(=O)Nc7nc8ccccc8s7)c6C5)ccc4-c4cccc(N(C)C(C)C)c4C)cc3)CC2)C(C)(C)C)cc1 [I-323],100 to 1000,> 10000,50 to 75,100 to 500
C#Cc1ccc([C@H](CO)NC(=O)[C@@H]2C[C@@H](O)CN2C(=O)[C@@H](NC(=O)CCCCCS(=O)(=O)NC(=O)c2nc(N3CCc4cccc(C(=O)Nc5nc6cccnc6s5)c4C3)ccc2-c2cnn(CC3CCCCC3)c2C)C(C)(C)C)cc1 [I-488],< 100,> 10000,> 75,10 to 100
Cc1ncsc1-c1ccc([C@H](C)NC(=O)[C@@H]2C[C@@H](O)CN2C(=O)[C@@H](NC(=O)C2CCN(CCS(=O)(=O)NC(=O)c3nc(N4CCc5cccc(C(=O)Nc6nc7ccccc7s6)c5C4)ccc3-c3cnn(CC4CCCCC4)c3C)CC2)C(C)(C)C)cc1 [I-373],100 to 1000,> 10000,> 75,10 to 100
Cc1ncsc1-c1ccc([C@H](C)NC(=O)[C@@H]2C[C@@H](O)CN2C(=O)[C@@H](NC(=O)C2CCN(c3ccc(S(=O)(=O)NC(=O)c4nc(N5CCCc6c5nnc(Nc5nc7ccccc7s5)c6C)ccc4-c4cnn(CC5CCCCC5)c4C)cc3)CC2)C(C)(C)C)cc1 [I-310],< 100,> 10000,> 75,10 to 100
Cc1ncsc1-c1ccc([C@H](C)NC(=O)[C@@H]2C[C@@H](O)CN2C(=O)[C@@H](c2cc(OC3CCN(CCNC(=O)c4nc(N5CCc6cccc(C(=O)Nc7nc8ccccc8s7)c6C5)ccc4-c4cnn(CC5CCCCC5)c4C)CC3)no2)C(C)C)cc1 [I-291],1000 to 3000,1000 to 10000,< 50,500 to 1000
Cc1cc(N(C)c2ccc(-c3cnn(CC4CCCC4)c3C)c(C(=O)NS(=O)(=O)CCCCCC(=O)N[C@H](C(=O)N3C[C@H](O)C[C@H]3C(=O)N[C@@H](C)c3ccc(-c4scnc4C)cc3)C(C)(C)C)n2)nnc1Nc1nc2ccccc2s1 [I-443],> 3000,> 10000,> 75,100 to 500
Cc1cc(N(C)c2ccc(-c3cnn(CC45CC6CC(CC(C6)C4)C5)c3C)c(C(=O)NS(=O)(=O)CCCCCC(=O)N[C@H](C(=O)N3C[C@H](O)C[C@H]3C(=O)NCc3ccc(-c4scnc4C)cc3)C(C)(C)C)n2)nnc1Nc1nc2cccnc2s1 [I-451],100 to 1000,> 10000,> 75,10 to 100
Cc1ncsc1-c1ccc(CNC(=O)[C@@H]2C[C@@H](O)CN2C(=O)[C@@H](NC(=O)CCCCCS(=O)(=O)NC(=O)c2nc(N3CCc4cccc(C(=O)Nc5nc6cccnc6s5)c4C3)ccc2-c2cnn(CC(C)(C)C)c2C)C(C)(C)C)cc1 [I-467],1000 to 3000,> 10000,> 75,100 to 500
Cc1ncsc1-c1ccc([C@H](C)NC(=O)[C@@H]2C[C@@H](O)CN2C(=O)[C@@H](NC(=O)C2CCN(C3CCN(S(=O)(=O)NC(=O)c4nc(N5CCc6cccc(C(=O)Nc7nc8ccccc8s7)c6C5)ccc4-c4cnn(CC5CCCCC5)c4C)CC3)CC2)C(C)(C)C)cc1 [I-308],< 100,1000 to 10000,> 75,100 to 500
